The results in this text go back to ChEMBL document CHEMBL1136100, “4-Aminopiperidine derivatives as a new class of potent cognition enhancing drugs” (2003).

Holding throughout (assay type): functional
In test [1] the test system is Mus musculus. Put plainly: Cognition enhancing activity was evaluated by mouse passive-avoidance test using Scopolamine as amnesing drug administered intraperitoneally.
The species entered for test [2] is Mus musculus. Put plainly: Cognition enhancing activity was evaluated by mouse passive-avoidance test using Scopolamine as amnesing drug after 2nd day.
The species named for test [3] is Mus musculus. Put plainly: Cognition enhancing activity was evaluated by mouse passive-avoidance test using Scopolamine as amnesing drug after 1st day.
For test [4], the species on record is Mus musculus. Put plainly: Difference between entry latency of cognition enhancing activity between 2nd day and 1st day.

As for `CC(=O)N1CCN(S(=O)(=O)c2ccc(F)cc2)CC1`, the Min effective dose in the test on Mus musculus [1] came out at 0.01 mg/kg.

Consider `CC(=O)N1CCC(NS(=O)(=O)C(C)C)CC1`, for which the Entry latency is 99.3 s in the test filed under Mus musculus [2], 15.1 s in the test filed under Mus musculus [3] and 84.2 s in the test filed under Mus musculus [4]. In addition, in the test with Mus musculus [1], the Min effective dose is 10 mg/kg.

As to `CC(=O)N1CCC(NS(=O)(=O)c2ccc(F)cc2)CC1`, the Entry latency is recorded as 126.8 s in the test listed under Mus musculus [2], 23.5 s in the test listed under Mus musculus [3] and 92.6 s in the test filed under Mus musculus [4]. The Min effective dose with Mus musculus [1] came out at 0.1 mg/kg.

Take `CC(=O)N1CCN(C(=O)c2ccccc2)CC1`: in the test with Mus musculus [1], the Min effective dose is 10 mg/kg.

As to `CCC(=O)N1CCN(C(=O)c2ccccc2)CC1`, the Min effective dose in the test with Mus musculus [1] was 0.01 mg/kg.

In the case of `NC(=O)CN1CCCC1=O`, in the test with Mus musculus [1], the Min effective dose was determined as 30 mg/kg.

In the case of `CCC(=O)N1CCC(NS(=O)(=O)C(C)C)CC1`, the Entry latency in the test filed under Mus musculus [2] is recorded as 96.9 s; in the test filed under Mus musculus [3] it was 14.5 s; in the test filed under Mus musculus [4], 82.4 s. For the same compound, in the test on Mus musculus [1], the Min effective dose amounted to 10 mg/kg.

With `CCC(=O)N1CCC(NS(=O)(=O)c2ccc(F)cc2)CC1`, the Entry latency stood at 108.2 s in the test filed under Mus musculus [2], 15.6 s in the test filed under Mus musculus [3] and 103 s in the test filed under Mus musculus [4]. For the same compound, in the test with Mus musculus [1], the Min effective dose was 10 mg/kg.

On to `CCC(=O)NC1CCN(S(=O)(=O)c2ccc(F)cc2)CC1`, for which the Entry latency in the test listed under Mus musculus [2] is on record as 103.4 s; in the test filed under Mus musculus [3] it was 17.6 s; in the test listed under Mus musculus [4] it was 85.8 s. Moreover, the Min effective dose with Mus musculus [1] turned out to be 0.1 mg/kg.

As to `CC(=O)NC1CCN(S(=O)(=O)c2ccc(F)cc2)CC1`, the Entry latency in the test listed under Mus musculus [2] stood at 90.6 s; in the test filed under Mus musculus [3] it was 14.5 s; in the test filed under Mus musculus [4] it was 76.1 s. Besides, the Min effective dose in the test with Mus musculus [1] is 0.01 mg/kg.

As to `CCC(=O)N1CCC(NC(=O)c2ccccc2)CC1`, the Entry latency stood at 122.8 s in the test listed under Mus musculus [2], 19.7 s in the test listed under Mus musculus [3] and 103.1 s in the test listed under Mus musculus [4]. In addition, in the test on Mus musculus [1], the Min effective dose came to 0.1 mg/kg.

Turning to `CC(=O)NC1CCN(S(=O)(=O)C(C)C)CC1`, the Entry latency was determined as 89.7 s in the test listed under Mus musculus [2], 14.3 s in the test filed under Mus musculus [3] and 75.4 s in the test filed under Mus musculus [4]. The Min effective dose with Mus musculus [1] is 1 mg/kg.

Consider `CCC(=O)NC1CCN(S(=O)(=O)C(C)C)CC1`, for which the results for the Entry latency in the test listed under Mus musculus [2], in the test listed under Mus musculus [3] and in the test listed under Mus musculus [4] were 102.8 s, 14.2 s and 88.6 s, respectively. In addition, the Min effective dose in the test with Mus musculus [1] stood at 10 mg/kg.

As for `CC(=O)NC1CCN(C(=O)c2ccccc2)CC1`, the values for the Entry latency in the test listed under Mus musculus [2], in the test filed under Mus musculus [3] and in the test filed under Mus musculus [4] were 113.5 s, 12.8 s and 100.7 s, respectively. Also, the Min effective dose in the test on Mus musculus [1] was determined as 10 mg/kg.

With `CCC(=O)NC1CCN(C(=O)c2ccccc2)CC1`, the Entry latency in the test listed under Mus musculus [2] turned out to be 121 s; in the test listed under Mus musculus [3], 18 s; in the test filed under Mus musculus [4] it was 103 s. In the test with Mus musculus [1], the Min effective dose was 0.1 mg/kg.

Regarding `CCC(=O)N1CCN(S(=O)(=O)c2ccc(F)cc2)CC1`, the Min effective dose in the test with Mus musculus [1] came to 0.01 mg/kg.

With `CN1[C@@H]2C[C@@H](OC(=O)[C@H](CO)c3ccccc3)C[C@H]1[C@@H]1O[C@@H]12` [SCOPOLAMINE], the Entry latency stood at 44.5 s in the test filed under Mus musculus [2] and 27.9 s in the test filed under Mus musculus [4]. Besides, the Min effective dose in the test with Mus musculus [1] amounted to 1.5 mg/kg.
